Legend:
Type in all cases: cell-based
CHO cells [1] = experiment: Uptake of radiolabelled methionine into CHO cells cultured on CYTODEX/YOx Microcarriers (Example 2); settings: cycloheximide 10 μM final concentration; CCD imaging; FIG. 1
Experimental: CYTODEX™ and CYTODEX™/YOx Microcarrier beads were dispensed into sterile universal containers. Beads were collected by centrifugation at 100 rpm for one minute. Supernatants were removed and replaced with complete Ham's F12 nutrient mix containing 10% (v\v) FCS. Beads were incubated with rolling at 37° C. for 30 minutes. Beads were harvested by centrifugation at 100 rpm for 1 minute. Spent medium was removed and replaced with 10^7 cells in 500 μl or less. Beads plus cells were incubated at 37° C. for 20 minutes to permit cell attachment to beads. Fresh Ham's F12 medium was added to a final volume of 4 ml containing 5 mg/ml beads for [^35S] and 10 mg/ml for [^14C] or [^3H]. Beads were left to roll overnight at 37° C. Following overnight incubation, beads/cells were harvested by centrifugation at 100 rpm for 1 minute. Supernatant containing unattached cells was removed. Microcarrier beads were washed with PBS (×1) and resuspended in methionine deficient DMEM supplemented with radiolabelled methionine. Cultures were returned to 37° C. with rolling. [^3H]Methionine and [^14C] or [^35S]methionine were included at final concentrations of 8 μCi/ml and 4 μCi/ml respectively. […]

CHO cells [2] = experiment: Parallel assay of incorporation of [35S]methionine into CHO cells on CYTODEX/YOx Microcarriers (Example 3); settings: cycloheximide 10 μM, without inhibitor 1700 IODs, 'no cell' controls 650 IODs, FIG. 4
Experimental: (§1) 40 mg of YOx-loaded CYTODEX™ Microcarrier beads were dispensed into suitable sterile containers and allowed to settle. The supernatant was removed from each microcarrier pellet and the beads resuspended in 5 ml of either complete Ham's F12 nutrient mix (Sigma N-4888) or DMEM (Sigma D-6546), both containing 10% FCS, 2 mM L-glutamine and 50 μg/ml streptamycin/50 IU/ml penicillin. The microcarriers were incubated at 37° C. for thirty minutes without rolling.
(§2) 10×10^6 CHO or HeLa cells in 5 ml complete medium were added to separate microcarrier preparations and the cultures incubated at 37° C. for thirty minutes without rolling. After the initial incubation cultures were incubated overnight at 37° C. with rolling. Following the overnight incubation, unattached cells were removed and the beads resuspended in 10 ml complete culture medium. Microcarriers/cells were maintained in culture until the cell density had reached a sufficient level. Culture medium was replaced every two days.
(§3) Cycloheximide was prepared as a 1 mM stock in phosphate buffered saline and added to the cultures at a final concentration of 10 μM. […]
(§4) Each microcarrier preparation was allowed to settle and the growth medium removed. […] Plates were read on the LEADseeker™ Imaging System with a 5 minute exposure time to detect cellular associated methionine.

HeLa cells = experiment: Parallel assay of incorporation of [35S]methionine into HeLa cells on CYTODEX/YOx Microcarriers (Example 3); settings: cycloheximide 10 μM, without inhibitor 900 IODs, 'no cell' controls 650 IODs, FIG. 4
Experimental: as §1, §2, §3, §4

With `C[C@@H]1C[C@@H]([C@H](O)CC2CC(=O)NC(=O)C2)C(=O)[C@@H](C)C1` [cycloheximide] the “uptake of [35S]methionine into CHO cells” value (CHO cells [1]) was “inhibited”, the “signal of [35S]methionine incorporation in the presence of protein synthesis inhibitor” value (CHO cells [2]) was 650 IODs and the “signal of [35S]methionine incorporation in the presence of protein synthesis inhibitor” value (HeLa cells) was 600 IODs.

Reference: US7101719B2, “Support and method for cell based assays” (GE Healthcare Limited, priority 2000, dated 2006)
